The target in test [1] is Gamma-aminobutyric acid receptor subunit alpha-1 (Rattus norvegicus, UniProt P62813).
A further test deals with T1, B2 bradykinin receptor (Homo sapiens, UniProt P30411).
T1 sequence (P30411 whole entry): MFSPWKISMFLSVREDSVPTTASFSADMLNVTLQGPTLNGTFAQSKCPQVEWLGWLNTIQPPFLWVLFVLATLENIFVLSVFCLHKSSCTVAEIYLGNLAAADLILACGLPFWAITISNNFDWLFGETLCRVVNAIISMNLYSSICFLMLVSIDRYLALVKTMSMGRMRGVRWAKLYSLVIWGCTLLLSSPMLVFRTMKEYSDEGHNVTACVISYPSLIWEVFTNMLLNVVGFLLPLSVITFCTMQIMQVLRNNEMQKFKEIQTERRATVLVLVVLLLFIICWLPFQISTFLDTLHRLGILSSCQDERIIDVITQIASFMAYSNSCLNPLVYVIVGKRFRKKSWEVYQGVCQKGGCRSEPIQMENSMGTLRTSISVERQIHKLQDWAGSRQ

For test [2], the target named is T2, Alpha-2A adrenergic receptor (Homo sapiens, UniProt P08913).
T2 sequence (P08913 whole entry): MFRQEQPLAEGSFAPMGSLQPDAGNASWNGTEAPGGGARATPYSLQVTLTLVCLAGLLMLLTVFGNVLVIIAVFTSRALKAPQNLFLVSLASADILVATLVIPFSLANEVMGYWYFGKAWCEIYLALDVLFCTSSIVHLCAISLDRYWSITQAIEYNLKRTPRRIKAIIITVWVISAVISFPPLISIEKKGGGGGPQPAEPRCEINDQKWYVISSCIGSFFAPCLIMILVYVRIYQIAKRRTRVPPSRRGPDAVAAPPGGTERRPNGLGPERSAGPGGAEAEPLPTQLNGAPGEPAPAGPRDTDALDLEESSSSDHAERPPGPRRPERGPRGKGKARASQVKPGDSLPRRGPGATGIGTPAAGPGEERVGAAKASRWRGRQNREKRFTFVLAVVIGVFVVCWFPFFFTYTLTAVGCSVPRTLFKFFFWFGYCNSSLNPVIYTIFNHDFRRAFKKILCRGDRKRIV
The test is classed as functional, cell-based.

For test [3], the target named is T2, Alpha-2A adrenergic receptor. It is filed as functional, cell-based. The source holds these as a separate data set.
Test [4] concerns the target T3, Adenosine receptor A1 (Homo sapiens, UniProt P30542).
T3 sequence (P30542 whole entry): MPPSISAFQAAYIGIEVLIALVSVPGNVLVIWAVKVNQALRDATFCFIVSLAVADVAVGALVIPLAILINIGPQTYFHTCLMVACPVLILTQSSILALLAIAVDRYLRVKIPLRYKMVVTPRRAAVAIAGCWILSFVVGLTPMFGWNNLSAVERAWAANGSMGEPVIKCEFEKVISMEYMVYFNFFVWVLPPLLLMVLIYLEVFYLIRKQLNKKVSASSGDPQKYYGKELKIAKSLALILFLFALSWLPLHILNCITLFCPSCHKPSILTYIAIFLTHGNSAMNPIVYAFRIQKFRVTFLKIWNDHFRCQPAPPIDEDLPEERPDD

In test [5] the target is T4, Prostaglandin G/H synthase 1 (Rattus norvegicus, UniProt Q63921).
T4 sequence (Q63921 whole entry): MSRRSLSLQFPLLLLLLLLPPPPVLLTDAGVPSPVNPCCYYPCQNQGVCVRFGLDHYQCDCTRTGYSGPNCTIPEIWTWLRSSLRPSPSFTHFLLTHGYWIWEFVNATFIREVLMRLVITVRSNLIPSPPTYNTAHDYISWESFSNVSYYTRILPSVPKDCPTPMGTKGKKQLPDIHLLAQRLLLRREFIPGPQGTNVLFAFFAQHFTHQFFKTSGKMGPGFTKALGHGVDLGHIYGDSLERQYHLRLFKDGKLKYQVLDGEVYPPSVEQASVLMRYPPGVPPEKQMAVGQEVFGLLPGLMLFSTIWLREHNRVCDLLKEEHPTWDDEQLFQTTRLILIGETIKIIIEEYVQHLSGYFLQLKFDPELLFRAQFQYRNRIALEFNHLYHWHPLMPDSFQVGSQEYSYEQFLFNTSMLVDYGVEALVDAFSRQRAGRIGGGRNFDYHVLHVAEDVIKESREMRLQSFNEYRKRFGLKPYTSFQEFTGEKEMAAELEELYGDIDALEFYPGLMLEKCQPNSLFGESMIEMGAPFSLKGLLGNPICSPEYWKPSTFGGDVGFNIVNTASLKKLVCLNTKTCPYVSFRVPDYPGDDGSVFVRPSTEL
It is filed as functional.

Test [6] concerns the target 5-hydroxytryptamine receptor 2B (Homo sapiens, UniProt P41595). The test is classed as functional, cell-based.
Test [7] addresses Sodium-dependent noradrenaline transporter (Homo sapiens, UniProt P23975).
Test [8] concerns the target T5, Muscarinic acetylcholine receptor M2 (Homo sapiens, UniProt P08172).
T5 sequence (P08172 whole entry): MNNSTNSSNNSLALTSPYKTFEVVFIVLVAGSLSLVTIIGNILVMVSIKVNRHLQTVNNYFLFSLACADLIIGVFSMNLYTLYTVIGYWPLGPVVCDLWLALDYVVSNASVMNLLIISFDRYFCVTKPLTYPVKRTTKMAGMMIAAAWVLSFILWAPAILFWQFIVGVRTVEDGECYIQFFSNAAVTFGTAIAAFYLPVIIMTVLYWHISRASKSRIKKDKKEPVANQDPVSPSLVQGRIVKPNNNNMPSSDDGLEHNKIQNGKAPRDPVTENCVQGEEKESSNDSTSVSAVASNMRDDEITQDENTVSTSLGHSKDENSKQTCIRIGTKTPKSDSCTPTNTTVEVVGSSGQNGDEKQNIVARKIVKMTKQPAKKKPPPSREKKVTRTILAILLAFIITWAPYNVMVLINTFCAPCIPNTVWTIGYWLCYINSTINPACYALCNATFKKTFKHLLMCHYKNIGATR
The test is classed as functional, cell-based.

The target of test [9] is T3, Adenosine receptor A1. This is another data set of the same source.
In the next test the target is D(1A) dopamine receptor (Homo sapiens, UniProt P21728). It is filed as functional, cell-based.
D(1A) dopamine receptor, sequence (P21728 whole entry): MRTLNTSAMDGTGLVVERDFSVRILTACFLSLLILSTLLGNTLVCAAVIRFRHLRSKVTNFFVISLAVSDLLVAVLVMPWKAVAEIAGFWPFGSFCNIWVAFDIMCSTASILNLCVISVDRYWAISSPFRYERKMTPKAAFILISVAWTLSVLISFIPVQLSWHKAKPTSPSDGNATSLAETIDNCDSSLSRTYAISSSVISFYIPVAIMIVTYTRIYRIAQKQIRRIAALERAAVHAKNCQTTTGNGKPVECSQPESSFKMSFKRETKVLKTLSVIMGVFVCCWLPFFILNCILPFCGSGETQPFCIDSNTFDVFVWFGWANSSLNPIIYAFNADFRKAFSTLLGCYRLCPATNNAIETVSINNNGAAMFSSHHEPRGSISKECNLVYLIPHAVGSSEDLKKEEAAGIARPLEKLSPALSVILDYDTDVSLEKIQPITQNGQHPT
Test [10] deals with Neuronal acetylcholine receptor subunit alpha-4 (Homo sapiens, UniProt P43681).
Neuronal acetylcholine receptor subunit alpha-4, sequence (P43681 whole entry): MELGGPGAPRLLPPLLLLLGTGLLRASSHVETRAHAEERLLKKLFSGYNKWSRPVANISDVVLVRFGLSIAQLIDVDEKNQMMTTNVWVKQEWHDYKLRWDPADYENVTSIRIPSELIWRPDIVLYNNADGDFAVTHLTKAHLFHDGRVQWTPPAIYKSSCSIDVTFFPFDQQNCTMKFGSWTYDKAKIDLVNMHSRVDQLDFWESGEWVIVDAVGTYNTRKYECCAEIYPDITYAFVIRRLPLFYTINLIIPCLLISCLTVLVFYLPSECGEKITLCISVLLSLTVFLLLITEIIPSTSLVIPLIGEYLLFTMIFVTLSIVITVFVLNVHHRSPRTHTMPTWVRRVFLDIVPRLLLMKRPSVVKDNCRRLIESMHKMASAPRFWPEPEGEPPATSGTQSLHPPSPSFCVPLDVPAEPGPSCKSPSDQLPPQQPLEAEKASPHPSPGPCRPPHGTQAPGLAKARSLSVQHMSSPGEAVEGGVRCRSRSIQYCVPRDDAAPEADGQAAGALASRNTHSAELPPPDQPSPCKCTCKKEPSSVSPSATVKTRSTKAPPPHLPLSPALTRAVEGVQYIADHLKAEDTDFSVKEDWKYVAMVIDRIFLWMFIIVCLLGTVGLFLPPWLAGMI
In test [11] the target is Delta-type opioid receptor (Homo sapiens, UniProt P41143).
Delta-type opioid receptor, sequence (P41143 whole entry): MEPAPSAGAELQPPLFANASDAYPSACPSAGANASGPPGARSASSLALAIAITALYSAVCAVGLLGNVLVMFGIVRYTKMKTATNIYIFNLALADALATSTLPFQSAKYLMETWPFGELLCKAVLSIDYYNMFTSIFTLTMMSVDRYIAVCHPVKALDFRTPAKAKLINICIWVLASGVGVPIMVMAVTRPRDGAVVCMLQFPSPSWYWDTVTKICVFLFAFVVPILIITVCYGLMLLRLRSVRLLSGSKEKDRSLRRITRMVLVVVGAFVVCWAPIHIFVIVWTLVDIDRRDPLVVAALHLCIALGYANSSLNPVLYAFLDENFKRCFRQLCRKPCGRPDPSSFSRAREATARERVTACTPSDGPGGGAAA
Test [12] addresses 3',5'-cyclic-AMP phosphodiesterase 4D (Homo sapiens, UniProt Q08499). It is filed as functional.
The target of the next test is Cannabinoid receptor 1 (Homo sapiens, UniProt P21554). The test is classed as functional, cell-based.
Cannabinoid receptor 1, sequence (P21554 whole entry): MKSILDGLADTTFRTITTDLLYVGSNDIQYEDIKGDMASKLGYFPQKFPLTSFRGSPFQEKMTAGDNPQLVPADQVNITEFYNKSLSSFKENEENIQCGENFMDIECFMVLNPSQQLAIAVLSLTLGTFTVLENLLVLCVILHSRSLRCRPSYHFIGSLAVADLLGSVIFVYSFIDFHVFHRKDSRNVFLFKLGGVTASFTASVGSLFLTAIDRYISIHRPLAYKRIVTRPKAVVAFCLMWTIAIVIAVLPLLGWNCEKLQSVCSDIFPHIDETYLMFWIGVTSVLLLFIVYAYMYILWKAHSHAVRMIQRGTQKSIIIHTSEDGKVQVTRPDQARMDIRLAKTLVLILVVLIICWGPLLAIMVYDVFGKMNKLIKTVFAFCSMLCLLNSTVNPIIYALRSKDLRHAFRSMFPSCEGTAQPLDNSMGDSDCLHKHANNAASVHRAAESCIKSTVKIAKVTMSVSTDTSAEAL
The next test addresses Histamine H1 receptor (Homo sapiens, UniProt P35367).

A value given as a limit tells only on which side of the number the result lay.

The AC50 is the concentration at which the activity in the assay is half-maximal.
Also: assay procedure not described here.

Gamma-aminobutyric acid receptor subunit alpha-1, sequence (P62813 whole entry): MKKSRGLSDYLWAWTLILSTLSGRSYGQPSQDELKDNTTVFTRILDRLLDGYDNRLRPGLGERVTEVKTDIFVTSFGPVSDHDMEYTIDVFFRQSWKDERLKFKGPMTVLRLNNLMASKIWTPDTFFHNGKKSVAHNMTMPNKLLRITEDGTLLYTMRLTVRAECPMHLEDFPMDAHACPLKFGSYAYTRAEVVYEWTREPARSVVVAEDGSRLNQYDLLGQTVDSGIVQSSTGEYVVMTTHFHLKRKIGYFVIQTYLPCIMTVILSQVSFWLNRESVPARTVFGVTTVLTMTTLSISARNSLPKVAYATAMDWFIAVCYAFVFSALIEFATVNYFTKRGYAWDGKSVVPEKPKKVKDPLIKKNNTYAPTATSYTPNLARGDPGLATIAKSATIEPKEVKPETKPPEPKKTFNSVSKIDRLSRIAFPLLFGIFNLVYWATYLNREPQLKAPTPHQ
5-hydroxytryptamine receptor 2B, sequence (P41595 whole entry): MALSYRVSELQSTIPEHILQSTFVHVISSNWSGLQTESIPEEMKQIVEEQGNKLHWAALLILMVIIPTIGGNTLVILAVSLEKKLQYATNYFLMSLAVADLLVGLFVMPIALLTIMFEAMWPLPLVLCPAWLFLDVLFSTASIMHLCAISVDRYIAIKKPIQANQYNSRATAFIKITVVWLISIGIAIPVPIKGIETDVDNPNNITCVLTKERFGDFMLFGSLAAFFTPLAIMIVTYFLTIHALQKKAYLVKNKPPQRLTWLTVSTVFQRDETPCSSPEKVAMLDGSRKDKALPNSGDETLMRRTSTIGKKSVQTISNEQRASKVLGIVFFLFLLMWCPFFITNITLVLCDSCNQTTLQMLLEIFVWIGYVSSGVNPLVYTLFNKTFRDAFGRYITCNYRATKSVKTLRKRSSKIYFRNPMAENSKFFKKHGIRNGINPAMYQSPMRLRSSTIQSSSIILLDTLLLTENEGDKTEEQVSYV
3',5'-cyclic-AMP phosphodiesterase 4D, sequence (Q08499 whole entry): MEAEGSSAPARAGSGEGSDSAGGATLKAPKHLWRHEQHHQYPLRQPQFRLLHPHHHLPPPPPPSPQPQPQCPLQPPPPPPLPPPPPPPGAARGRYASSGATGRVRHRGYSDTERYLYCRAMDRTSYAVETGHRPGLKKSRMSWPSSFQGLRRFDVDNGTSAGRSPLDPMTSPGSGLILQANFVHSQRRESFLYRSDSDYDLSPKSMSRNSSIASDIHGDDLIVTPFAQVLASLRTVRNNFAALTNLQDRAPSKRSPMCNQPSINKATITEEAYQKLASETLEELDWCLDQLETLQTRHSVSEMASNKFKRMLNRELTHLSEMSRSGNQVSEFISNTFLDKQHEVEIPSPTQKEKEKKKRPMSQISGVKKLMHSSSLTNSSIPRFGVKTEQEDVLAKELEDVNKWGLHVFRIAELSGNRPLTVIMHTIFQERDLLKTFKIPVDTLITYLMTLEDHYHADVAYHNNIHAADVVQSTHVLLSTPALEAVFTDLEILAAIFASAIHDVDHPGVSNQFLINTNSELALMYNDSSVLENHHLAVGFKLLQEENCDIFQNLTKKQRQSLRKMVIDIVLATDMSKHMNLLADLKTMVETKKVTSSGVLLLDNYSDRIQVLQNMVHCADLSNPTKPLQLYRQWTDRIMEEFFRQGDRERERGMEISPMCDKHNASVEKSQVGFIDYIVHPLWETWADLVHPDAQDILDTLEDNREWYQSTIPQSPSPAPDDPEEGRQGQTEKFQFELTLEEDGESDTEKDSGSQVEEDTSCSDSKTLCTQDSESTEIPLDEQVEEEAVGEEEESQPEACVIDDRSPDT
Histamine H1 receptor, sequence (P35367 whole entry): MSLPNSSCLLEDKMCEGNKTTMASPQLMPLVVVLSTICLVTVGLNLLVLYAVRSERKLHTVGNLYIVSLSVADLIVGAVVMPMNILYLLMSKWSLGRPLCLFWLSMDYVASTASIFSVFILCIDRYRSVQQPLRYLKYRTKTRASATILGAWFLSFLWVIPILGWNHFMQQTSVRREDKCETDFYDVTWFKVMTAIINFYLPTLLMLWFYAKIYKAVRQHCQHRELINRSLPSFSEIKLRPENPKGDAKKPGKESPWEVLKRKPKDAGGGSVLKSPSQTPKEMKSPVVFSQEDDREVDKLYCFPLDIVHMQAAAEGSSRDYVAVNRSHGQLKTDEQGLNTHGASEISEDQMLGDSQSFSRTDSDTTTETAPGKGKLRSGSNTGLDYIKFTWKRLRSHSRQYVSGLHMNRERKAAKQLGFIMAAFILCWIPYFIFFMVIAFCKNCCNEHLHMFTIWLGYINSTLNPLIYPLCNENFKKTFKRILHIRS
Sodium-dependent noradrenaline transporter, sequence (P23975 whole entry): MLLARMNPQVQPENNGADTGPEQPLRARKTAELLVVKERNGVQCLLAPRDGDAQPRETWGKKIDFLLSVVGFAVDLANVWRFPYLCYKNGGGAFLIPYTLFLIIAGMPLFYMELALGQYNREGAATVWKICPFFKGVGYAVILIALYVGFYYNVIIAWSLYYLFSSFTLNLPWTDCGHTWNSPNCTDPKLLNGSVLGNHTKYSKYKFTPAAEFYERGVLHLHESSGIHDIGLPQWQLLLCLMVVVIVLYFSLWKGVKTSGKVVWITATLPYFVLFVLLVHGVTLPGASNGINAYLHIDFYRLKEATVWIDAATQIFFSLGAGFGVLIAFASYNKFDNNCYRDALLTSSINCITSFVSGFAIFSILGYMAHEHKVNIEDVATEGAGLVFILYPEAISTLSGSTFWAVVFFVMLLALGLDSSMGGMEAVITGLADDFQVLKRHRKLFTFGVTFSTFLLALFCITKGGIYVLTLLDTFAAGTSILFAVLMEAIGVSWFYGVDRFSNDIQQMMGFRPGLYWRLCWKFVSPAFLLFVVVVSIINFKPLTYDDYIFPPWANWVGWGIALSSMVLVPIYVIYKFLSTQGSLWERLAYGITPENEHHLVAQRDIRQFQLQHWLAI

Consider `N=C(N)NC(=O)c1nc(Cl)c(N)nc1N` [AMILORIDE], for which the AC50 (in test [1]; on B2 bradykinin receptor; in [2]; in test [3]; on Adenosine receptor A1 [4]; in [5]) was greater than 30 µM each time. Besides, the AC50 (in test [6]; in test [7]; in [8]; at Adenosine receptor A1 [9]; at D(1A) dopamine receptor; in test [10]) was greater than 30 µM throughout. The AC50 in test [11] and in test [12] was greater than 30 µM in each case.
For the compound `CC(C)(C)NCC(O)COc1ccccc1C#N` (stereo not drawn) [BUNITROLOL], the AC50 at Cannabinoid receptor 1 is greater than 30 µM; in test [1], greater than 30 µM; in test [2], greater than 30 µM; in test [3], greater than 30 µM; at Adenosine receptor A1 [4], greater than 30 µM; in [6], 21 µM. Also, the AC50 (in test [8]; on D(1A) dopamine receptor; at Histamine H1 receptor; in test [11]; in test [12]) was greater than 30 µM each time.
With `COc1ccc(C(=O)c2ccccc2)c(O)c1` [OXYBENZONE], the AC50 (at Cannabinoid receptor 1; in test [1]; in [2]; in test [3]; at Adenosine receptor A1 [4]; in test [6]) was greater than 30 µM throughout. For the same compound, the AC50 was greater than 30 µM in test [8]; greater than 30 µM at D(1A) dopamine receptor; 17 µM on Histamine H1 receptor; greater than 30 µM in test [11]; 26 µM in test [12].
With `OC(CN1CCCCC1)c1cc(-c2ccccc2)on1` (stereo not drawn) [PERISOXAL], at Adenosine receptor A1 [4], the AC50 is greater than 30 µM.
Still for that read-out and setting: to `CC(=O)O[C@]1(C(C)=O)CC[C@H]2[C@@H]3CCC4=CC(=O)CCC4=C3[C@@H](c3ccc(N(C)C)cc3)C[C@@]21C` [ULIPRISTAL ACETATE] belongs greater than 30 µM.

Values taken from ChEMBL document CHEMBL5291721, “A preclinical secondary pharmacology resource illuminates target-adverse drug reaction associations of marketed drugs” (Nat Commun, 2023).
